Assay results reported in paper PMC7069248 (Chemical Science, 2019).
Blank lines part the entries; values can stand above or below the molecule they belong to.

How the values were obtained:
[1] = molecular target: T1, Human pancreatic α-amylase (HPA) (Homo sapiens, UniProt P04746); assay: biochemical
T1 sequence (P04746 16-511): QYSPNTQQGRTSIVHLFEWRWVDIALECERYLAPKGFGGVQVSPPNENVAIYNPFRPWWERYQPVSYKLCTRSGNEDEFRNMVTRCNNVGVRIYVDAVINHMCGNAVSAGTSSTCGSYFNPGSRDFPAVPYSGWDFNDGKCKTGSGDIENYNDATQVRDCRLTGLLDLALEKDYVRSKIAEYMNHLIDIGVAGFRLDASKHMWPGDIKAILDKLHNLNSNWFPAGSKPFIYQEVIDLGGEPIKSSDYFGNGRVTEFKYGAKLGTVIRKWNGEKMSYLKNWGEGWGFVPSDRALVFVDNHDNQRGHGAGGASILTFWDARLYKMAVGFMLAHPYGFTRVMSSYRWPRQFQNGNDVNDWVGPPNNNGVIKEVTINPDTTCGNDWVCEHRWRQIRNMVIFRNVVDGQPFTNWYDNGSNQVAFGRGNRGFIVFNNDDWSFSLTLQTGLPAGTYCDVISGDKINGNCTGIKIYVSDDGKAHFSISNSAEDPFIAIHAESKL

[2] = molecular target: T1, Human pancreatic α-amylase (HPA); details: relative to M09
[3] = molecular target: Green coffee bean α-galactosidase (Coffea arabica, UniProt Q42656); assay: Specificity analysis of M10: green coffee bean α-galactosidase; assay type: biochemical; details: read-out: M10 IC50; 37 °C, pH 7
[4] = molecular target: T2, Agrobacterium β-glucosidase (Agrobacterium sp., UniProt P12614); assay: Specificity analysis of M10: Agrobacterium β-glucosidase; assay type: biochemical
T2 sequence (P12614 1-459): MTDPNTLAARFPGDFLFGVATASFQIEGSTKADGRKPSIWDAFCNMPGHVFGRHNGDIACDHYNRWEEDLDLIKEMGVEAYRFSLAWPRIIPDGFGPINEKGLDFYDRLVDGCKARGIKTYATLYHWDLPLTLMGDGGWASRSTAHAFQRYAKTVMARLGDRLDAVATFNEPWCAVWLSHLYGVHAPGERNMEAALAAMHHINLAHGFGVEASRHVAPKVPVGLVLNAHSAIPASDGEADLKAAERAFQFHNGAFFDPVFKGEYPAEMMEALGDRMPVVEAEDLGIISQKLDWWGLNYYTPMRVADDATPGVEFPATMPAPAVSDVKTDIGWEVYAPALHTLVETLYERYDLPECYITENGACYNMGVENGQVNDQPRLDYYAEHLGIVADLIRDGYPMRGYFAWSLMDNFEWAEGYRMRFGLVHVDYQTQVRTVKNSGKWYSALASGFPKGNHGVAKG

[5] = molecular target: Homo sapiens maltase-glucoamylase (Homo sapiens, UniProt O43451); assay: Specificity analysis of M10: maltase-glucoamylase; assay type: biochemical; details: read-out: M10 IC50; 37 °C, pH 7, PNP α-Glc
[6] = molecular target: H. sapiens C-term sucrase-isomaltase (Homo sapiens, UniProt P14410); assay: Specificity analysis: C-term sucrase-isomaltase; assay type: biochemical; details: read-out: M10 IC50; 37 °C, pH 7, PNP α-Glc
Jack bean α-mannosidase = molecular target: T3, Jack bean α-mannosidase (Canavalia ensiformis, UniProt C0HJB3); assay: Specificity analysis of M10: Jack bean α-mannosidase; assay type: biochemical; details: read-out: M10 IC50; 37 °C, pH 7
T3 sequence (C0HJB3 1-981): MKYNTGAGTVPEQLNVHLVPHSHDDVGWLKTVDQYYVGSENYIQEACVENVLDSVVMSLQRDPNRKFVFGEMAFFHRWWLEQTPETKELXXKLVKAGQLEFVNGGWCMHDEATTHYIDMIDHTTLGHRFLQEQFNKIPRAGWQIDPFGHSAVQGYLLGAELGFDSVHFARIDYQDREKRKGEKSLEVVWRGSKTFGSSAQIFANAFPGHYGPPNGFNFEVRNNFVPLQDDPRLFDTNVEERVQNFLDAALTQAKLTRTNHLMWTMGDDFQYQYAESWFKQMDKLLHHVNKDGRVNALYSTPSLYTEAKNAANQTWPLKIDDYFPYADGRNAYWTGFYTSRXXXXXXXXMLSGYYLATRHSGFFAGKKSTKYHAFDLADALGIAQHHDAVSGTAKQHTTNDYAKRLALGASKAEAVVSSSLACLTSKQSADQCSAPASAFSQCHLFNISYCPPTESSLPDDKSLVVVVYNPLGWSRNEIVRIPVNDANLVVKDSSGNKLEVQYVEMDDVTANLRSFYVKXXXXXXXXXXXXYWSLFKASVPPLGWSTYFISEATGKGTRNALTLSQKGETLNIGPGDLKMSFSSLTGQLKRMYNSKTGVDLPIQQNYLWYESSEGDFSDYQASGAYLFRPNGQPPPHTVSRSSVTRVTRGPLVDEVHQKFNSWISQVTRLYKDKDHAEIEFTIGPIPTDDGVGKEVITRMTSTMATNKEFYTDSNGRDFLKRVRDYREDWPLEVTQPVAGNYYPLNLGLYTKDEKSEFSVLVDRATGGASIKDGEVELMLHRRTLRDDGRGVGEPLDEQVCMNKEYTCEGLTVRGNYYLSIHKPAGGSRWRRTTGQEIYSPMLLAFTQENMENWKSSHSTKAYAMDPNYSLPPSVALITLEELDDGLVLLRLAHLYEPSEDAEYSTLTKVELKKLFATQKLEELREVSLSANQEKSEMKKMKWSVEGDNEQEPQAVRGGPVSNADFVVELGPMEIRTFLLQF

E. coli β-galactosidase = E. coli β-galactosidase (Escherichia coli, UniProt P00722); assay: Specificity analysis of M10: E. coli β-galactosidase; details: read-out: M10 IC50; 37 °C, pH 7, 1.0 mM MgCl2
Sequence of E. coli β-galactosidase (P00722 2-1024 limits assumed): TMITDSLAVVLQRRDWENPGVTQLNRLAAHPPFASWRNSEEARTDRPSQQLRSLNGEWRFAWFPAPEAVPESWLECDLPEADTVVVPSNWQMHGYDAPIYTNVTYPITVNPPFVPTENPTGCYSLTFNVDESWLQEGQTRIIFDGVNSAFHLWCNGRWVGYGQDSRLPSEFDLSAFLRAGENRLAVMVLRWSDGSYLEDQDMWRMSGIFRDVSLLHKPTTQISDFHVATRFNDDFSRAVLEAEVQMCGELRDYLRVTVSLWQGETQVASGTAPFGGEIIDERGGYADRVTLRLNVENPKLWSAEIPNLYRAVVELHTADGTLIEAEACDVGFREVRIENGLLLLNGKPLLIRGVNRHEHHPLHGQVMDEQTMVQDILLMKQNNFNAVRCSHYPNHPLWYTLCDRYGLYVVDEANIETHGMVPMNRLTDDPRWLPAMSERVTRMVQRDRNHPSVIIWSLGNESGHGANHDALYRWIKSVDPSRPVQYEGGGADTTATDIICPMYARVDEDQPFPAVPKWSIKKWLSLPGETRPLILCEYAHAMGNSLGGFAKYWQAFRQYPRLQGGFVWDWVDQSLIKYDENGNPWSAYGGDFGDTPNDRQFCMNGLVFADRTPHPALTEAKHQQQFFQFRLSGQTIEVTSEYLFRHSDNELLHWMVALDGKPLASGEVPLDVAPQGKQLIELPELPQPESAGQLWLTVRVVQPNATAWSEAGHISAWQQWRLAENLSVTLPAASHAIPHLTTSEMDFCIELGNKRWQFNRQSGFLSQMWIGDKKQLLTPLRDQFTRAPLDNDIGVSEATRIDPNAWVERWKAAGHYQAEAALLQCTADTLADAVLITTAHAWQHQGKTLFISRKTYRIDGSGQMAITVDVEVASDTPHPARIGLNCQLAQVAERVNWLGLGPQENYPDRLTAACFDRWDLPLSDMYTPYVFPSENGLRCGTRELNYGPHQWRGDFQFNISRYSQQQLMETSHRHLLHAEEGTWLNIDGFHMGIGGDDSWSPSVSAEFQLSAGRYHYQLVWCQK

Sequence of Green coffee bean α-galactosidase (Q42656 16-378): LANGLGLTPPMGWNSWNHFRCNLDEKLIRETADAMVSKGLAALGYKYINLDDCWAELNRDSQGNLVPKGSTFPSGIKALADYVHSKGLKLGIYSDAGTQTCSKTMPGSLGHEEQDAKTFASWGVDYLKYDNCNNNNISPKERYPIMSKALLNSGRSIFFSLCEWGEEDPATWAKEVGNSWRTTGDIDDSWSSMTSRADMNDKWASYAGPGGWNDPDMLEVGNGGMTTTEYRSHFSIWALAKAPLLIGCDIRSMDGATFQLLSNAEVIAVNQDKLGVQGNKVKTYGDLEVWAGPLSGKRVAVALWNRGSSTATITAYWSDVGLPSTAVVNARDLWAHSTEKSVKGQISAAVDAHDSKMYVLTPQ
Sequence of H. sapiens C-term sucrase-isomaltase (P14410 1008-1827 limits assumed): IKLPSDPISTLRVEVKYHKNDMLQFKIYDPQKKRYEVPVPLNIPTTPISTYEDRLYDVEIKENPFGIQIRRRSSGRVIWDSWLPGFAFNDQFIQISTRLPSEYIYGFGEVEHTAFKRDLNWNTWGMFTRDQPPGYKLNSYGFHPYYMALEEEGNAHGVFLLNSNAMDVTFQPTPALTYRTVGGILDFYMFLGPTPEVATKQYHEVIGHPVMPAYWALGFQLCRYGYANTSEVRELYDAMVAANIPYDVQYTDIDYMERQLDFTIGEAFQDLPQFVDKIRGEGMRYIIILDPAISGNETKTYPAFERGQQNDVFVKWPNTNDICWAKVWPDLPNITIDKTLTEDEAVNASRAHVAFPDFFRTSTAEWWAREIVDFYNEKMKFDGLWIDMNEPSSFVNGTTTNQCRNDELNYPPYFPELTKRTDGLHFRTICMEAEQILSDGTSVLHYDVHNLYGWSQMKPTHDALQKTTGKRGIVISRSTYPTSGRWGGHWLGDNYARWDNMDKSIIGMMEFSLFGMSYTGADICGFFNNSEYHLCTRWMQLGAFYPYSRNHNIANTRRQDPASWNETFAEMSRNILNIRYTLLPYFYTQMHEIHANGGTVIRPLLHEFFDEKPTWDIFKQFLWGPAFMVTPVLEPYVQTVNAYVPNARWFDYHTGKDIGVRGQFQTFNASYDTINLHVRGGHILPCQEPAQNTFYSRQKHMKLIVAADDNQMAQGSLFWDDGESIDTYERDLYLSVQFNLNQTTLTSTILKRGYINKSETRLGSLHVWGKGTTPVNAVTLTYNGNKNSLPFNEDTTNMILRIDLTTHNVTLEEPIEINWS

Ki [1]: 110 ± 10 µM
Compound: O=C(/C=C/c1ccc(O)c(O)c1)NCCCOc1c(-c2ccc(O)c(O)c2)oc2cc(O)cc(O)c2c1=O [M03]

Ki [1]: 60 ± 10 µM
Compound: O=C(/C=C/c1ccc(O)c(O)c1)NCC(=O)NCCCOc1c(-c2ccc(O)c(O)c2)oc2cc(O)cc(O)c2c1=O [M05]

Compound: O=C(/C=C/c1ccc(O)c(O)c1)N[C@@H](Cc1ccc(O)cc1)C(=O)NCCCOc1c(-c2ccc(O)c(O)c2)oc2cc(O)cc(O)c2c1=O [M10]
Further contribution to the binding affinity [2]: ~2.5 kcal mol^–1
IC50 [3]: > 7 µM
IC50 [4]: 35.4 ± 5.7 µM
IC50 [5]: > 7 µM
IC50 [6]: > 7 µM
IC50 (Jack bean α-mannosidase): > 7 µM
IC50 (E. coli β-galactosidase): > 7 µM

Further contribution to the binding affinity [2]: ~2.5 kcal mol^–1
Ki [1]: 0.06 µM
Compound: O=C(/C=C/c1ccc(O)c(O)c1)N[C@@H](Cc1ccc(O)c(O)c1)C(=O)NCCCOc1c(-c2ccc(O)c(O)c2)oc2cc(O)cc(O)c2c1=O [M11]
